# Data as given in ChEMBL document CHEMBL5291721, “A preclinical secondary pharmacology resource illuminates target-adverse drug reaction associations of marketed drugs” (Nat Commun, 2023).
# Tests used:
# [1] = molecular target: T1, 5-hydroxytryptamine receptor 2B (Homo sapiens, UniProt P41595); assay type: functional, cell-based
# [2] = molecular target: Sodium-dependent noradrenaline transporter (Homo sapiens, UniProt P23975)
# [3] = molecular target: Histamine H3 receptor (Homo sapiens, UniProt Q9Y5N1)
# Chain of Histamine H3 receptor (Q9Y5N1 whole entry): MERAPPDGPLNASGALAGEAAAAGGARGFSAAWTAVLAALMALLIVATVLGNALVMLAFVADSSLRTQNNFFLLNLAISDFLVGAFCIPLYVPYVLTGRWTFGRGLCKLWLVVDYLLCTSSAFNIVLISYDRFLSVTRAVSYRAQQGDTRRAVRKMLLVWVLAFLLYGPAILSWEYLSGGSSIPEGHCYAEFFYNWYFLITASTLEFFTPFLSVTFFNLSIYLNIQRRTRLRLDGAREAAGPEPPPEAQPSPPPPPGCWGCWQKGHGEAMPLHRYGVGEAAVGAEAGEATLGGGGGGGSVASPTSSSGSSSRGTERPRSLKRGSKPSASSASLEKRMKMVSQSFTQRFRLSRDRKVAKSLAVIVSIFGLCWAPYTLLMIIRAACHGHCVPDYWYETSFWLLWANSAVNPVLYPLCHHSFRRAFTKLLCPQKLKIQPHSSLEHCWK
# [4] = molecular target: Cannabinoid receptor 1 (Homo sapiens, UniProt P21554); assay type: functional, cell-based
# [5] = molecular target: T2, Muscarinic acetylcholine receptor M2 (Homo sapiens, UniProt P08172); assay type: functional, cell-based
# T2 sequence (P08172 whole entry): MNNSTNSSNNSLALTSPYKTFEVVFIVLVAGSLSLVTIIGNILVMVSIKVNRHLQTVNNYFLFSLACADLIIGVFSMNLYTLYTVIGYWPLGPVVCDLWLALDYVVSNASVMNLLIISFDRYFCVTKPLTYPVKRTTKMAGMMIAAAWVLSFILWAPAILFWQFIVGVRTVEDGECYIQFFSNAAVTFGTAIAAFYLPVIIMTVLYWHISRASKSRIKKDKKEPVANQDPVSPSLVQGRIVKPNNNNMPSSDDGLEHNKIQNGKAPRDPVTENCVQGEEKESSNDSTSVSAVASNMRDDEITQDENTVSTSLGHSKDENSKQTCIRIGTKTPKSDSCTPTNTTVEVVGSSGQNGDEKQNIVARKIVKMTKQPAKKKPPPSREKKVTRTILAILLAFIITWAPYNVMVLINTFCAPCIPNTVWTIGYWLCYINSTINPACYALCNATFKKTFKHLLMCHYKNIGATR
# [6] = molecular target: T1, 5-hydroxytryptamine receptor 2B; assay type: functional, cell-based; remark: listed apart in the source
# [7] = molecular target: T3, Alpha-2C adrenergic receptor (Homo sapiens, UniProt P18825); assay type: functional
# T3 sequence (P18825 whole entry): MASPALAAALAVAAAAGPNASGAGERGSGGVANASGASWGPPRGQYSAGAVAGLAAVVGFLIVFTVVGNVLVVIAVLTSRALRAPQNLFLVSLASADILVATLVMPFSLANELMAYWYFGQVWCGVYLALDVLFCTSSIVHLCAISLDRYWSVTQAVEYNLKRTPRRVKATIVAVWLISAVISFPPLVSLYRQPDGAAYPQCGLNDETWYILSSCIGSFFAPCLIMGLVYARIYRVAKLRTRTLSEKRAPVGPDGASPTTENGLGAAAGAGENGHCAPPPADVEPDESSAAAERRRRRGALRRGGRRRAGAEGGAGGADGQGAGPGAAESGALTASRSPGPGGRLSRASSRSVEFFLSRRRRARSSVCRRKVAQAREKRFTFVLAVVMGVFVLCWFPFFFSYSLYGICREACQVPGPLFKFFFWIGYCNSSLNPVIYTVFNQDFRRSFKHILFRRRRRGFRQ
# [8] = molecular target: Motilin receptor (Homo sapiens, UniProt O43193)
# Chain of Motilin receptor (O43193 whole entry): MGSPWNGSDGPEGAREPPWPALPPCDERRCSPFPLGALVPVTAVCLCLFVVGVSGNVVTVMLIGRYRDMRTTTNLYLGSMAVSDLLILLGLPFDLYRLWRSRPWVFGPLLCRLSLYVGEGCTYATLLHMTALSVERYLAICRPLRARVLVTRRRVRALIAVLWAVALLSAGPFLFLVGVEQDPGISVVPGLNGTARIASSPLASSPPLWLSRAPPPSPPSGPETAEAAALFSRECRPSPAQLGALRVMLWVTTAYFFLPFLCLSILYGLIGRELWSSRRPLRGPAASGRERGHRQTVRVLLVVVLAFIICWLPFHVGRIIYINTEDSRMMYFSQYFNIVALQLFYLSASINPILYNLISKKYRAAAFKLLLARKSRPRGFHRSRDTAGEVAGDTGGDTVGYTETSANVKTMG
# [9] = molecular target: Growth hormone secretagogue receptor type 1 (Homo sapiens, UniProt Q92847)
# Chain of Growth hormone secretagogue receptor type 1 (Q92847 whole entry): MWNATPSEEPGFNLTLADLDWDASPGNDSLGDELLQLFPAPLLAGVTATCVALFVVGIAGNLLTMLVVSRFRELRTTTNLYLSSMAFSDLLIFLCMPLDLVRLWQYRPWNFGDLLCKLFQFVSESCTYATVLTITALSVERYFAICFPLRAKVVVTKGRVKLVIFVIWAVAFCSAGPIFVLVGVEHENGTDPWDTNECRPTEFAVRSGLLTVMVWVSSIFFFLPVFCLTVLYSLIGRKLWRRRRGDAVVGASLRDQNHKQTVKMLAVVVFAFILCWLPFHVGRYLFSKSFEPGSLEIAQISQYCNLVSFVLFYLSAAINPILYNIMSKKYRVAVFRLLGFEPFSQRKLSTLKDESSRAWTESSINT
# [10] = molecular target: Kappa-type opioid receptor (Homo sapiens, UniProt P41145)
# Chain of Kappa-type opioid receptor (P41145 whole entry): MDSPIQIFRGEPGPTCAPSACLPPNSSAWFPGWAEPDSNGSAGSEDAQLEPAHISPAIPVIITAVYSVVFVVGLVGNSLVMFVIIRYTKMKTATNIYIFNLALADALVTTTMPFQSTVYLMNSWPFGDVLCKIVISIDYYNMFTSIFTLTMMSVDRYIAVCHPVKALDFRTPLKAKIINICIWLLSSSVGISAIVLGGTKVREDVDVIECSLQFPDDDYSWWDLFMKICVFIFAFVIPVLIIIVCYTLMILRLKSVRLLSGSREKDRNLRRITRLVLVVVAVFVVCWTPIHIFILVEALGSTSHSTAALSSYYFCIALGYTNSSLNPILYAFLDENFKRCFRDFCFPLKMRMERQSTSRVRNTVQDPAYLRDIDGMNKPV
# [11] = molecular target: T4, Endothelin-1 receptor (Homo sapiens, UniProt P25101)
# T4 sequence (P25101 whole entry): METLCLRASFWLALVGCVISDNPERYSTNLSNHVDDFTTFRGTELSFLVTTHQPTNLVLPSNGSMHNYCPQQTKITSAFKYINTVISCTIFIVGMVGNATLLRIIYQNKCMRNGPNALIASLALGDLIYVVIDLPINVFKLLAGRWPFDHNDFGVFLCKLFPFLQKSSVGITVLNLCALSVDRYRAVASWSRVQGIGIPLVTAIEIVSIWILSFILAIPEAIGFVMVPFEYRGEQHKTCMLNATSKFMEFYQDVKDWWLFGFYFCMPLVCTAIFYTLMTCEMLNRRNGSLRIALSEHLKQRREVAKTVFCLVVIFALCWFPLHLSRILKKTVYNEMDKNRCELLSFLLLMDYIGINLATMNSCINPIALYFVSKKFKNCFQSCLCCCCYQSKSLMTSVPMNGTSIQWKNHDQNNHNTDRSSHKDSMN
# [12] = molecular target: Adenosine receptor A2a (Homo sapiens, UniProt P29274)
# [13] = molecular target: Voltage-dependent L-type calcium channel subunit alpha-1C (Rattus norvegicus, UniProt P22002); assay type: functional
# Chain of Voltage-dependent L-type calcium channel subunit alpha-1C (P22002 whole entry): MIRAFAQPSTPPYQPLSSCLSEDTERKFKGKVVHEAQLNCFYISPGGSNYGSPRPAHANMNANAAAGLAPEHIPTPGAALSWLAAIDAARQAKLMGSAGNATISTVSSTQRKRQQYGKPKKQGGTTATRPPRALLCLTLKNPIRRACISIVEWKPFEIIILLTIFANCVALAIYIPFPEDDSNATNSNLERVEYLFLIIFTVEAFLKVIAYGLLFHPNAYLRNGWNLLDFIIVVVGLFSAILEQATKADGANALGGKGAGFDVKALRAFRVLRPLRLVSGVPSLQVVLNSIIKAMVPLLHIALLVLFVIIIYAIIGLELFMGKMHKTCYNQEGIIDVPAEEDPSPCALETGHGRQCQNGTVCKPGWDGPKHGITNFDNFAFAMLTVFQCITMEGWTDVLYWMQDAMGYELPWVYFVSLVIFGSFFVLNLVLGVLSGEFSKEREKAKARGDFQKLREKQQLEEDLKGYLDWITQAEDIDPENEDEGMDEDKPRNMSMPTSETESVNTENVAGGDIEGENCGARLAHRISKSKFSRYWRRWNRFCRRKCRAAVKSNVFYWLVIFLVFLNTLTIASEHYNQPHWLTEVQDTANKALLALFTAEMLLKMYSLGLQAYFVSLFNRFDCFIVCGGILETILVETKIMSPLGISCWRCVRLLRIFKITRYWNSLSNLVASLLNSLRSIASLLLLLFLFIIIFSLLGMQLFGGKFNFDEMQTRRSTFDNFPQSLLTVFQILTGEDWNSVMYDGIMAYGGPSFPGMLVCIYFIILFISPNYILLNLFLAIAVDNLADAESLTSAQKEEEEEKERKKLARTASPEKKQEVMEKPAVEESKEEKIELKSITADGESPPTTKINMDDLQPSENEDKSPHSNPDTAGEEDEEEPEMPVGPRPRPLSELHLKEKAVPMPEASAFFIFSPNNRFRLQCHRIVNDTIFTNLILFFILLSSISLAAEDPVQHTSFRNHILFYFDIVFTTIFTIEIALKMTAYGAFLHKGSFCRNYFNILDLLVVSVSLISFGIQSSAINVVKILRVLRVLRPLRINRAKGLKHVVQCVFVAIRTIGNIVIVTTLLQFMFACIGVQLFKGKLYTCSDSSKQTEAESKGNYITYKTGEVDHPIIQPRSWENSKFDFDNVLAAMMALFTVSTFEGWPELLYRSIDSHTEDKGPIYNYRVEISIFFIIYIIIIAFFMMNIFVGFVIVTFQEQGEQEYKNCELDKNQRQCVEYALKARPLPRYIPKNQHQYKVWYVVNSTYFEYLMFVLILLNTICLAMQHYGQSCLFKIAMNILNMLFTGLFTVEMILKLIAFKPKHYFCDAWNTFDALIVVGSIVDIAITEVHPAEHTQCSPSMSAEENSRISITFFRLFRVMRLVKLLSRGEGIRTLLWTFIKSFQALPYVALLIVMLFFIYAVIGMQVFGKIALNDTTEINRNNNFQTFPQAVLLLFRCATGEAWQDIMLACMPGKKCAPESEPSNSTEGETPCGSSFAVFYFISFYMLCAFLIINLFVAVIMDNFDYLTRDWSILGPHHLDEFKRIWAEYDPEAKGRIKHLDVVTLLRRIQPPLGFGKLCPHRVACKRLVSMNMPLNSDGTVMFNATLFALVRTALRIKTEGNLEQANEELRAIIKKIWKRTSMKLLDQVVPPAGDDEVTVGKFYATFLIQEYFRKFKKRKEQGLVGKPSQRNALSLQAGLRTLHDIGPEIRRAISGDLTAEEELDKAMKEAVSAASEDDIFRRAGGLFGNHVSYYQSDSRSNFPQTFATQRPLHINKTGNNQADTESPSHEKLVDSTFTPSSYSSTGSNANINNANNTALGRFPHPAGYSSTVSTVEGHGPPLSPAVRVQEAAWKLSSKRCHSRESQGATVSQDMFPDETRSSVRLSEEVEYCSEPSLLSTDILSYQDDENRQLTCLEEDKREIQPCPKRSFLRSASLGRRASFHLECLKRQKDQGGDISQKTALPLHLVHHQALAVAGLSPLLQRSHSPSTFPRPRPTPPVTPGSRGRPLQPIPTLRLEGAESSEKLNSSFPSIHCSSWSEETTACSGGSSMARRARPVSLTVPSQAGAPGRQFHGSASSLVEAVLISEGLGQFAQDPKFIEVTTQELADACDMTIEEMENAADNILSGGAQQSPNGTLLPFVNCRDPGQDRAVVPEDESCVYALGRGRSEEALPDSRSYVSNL
# Further: assay procedure not described here.
# Chain of Sodium-dependent noradrenaline transporter (P23975 whole entry): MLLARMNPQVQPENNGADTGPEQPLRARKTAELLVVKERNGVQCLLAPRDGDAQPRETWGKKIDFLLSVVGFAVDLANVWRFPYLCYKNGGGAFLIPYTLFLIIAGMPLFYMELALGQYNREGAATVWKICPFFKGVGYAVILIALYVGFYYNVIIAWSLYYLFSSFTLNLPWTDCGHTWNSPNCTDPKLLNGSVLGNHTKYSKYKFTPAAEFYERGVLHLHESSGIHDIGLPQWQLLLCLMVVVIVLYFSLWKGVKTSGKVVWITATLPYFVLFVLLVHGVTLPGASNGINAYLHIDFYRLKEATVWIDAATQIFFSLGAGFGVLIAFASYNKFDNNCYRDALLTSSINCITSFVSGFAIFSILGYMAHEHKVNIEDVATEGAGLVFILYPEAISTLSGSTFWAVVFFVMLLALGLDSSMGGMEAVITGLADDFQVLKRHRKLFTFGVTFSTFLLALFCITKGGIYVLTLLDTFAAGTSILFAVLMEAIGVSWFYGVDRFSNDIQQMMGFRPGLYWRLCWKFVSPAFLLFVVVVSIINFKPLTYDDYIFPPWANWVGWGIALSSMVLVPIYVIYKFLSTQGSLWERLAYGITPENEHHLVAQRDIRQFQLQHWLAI
# T1 sequence (P41595 whole entry): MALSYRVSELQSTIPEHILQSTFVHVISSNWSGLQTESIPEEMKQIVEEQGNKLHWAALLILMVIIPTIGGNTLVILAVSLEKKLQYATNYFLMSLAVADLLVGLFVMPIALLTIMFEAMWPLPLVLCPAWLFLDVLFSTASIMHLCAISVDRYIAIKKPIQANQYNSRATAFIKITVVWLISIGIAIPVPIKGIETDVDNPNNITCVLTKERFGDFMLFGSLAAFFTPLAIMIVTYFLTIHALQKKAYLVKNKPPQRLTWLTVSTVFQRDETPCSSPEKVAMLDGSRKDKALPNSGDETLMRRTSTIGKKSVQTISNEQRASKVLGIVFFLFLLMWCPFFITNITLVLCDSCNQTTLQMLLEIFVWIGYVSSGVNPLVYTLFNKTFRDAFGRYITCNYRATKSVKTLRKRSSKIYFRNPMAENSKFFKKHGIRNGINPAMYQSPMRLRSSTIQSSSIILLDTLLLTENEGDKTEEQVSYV
Molecule,AC50 [1] [µM],AC50 [2] [µM],AC50 [3] [µM],AC50 [4] [µM],AC50 [5] [µM],AC50 [6] [µM],AC50 [7] [µM],AC50 [8] [µM],AC50 [9] [µM],AC50 [10] [µM],AC50 [11] [µM],AC50 [12] [µM],AC50 [13] [µM]
NS(=O)(=O)c1ccc(N2CCCCS2(=O)=O)cc1,> 30,> 30,> 30,> 30,> 30,> 30,> 30,> 30,> 30,21,> 30,> 30,–
O=C(O[C@H]1C[N+]2(CCCOc3ccccc3)CCC1CC2)C(O)(c1cccs1)c1cccs1 [ACLIDINIUM BROMIDE],–,> 10,> 10,–,–,–,2.5,> 10,> 30,13.9,> 30,> 30,> 10
Nc1cc(N2CCCCC2)nc(N)[n+]1[O-] [MINOXIDIL],> 10,> 30,> 10,–,> 10,> 10,> 10,> 10,> 30,> 10,–,> 30,> 10
CCN(CC)C(C)C(=O)c1ccccc1 (stereo unspecified) [DIETHYLPROPION],> 10,> 30,> 10,> 30,> 10,> 10,> 10,> 10,> 30,> 10,> 30,> 30,> 10
N=C(N)NC(=O)Cc1c(Cl)cccc1Cl [GUANFACINE],–,> 30,–,> 30,> 30,0.358,–,> 10,> 30,5.95,–,> 30,> 30
SITOSTEROLS,> 30,> 30,> 30,> 30,> 30,> 30,> 30,> 30,> 30,> 30,> 30,> 30,> 30
CC1NCCOC1c1ccccc1 (stereo unspecified) [PHENMETRAZINE],23,11.4,> 10,> 30,> 10,> 10,> 10,> 10,> 30,> 10,> 30,> 30,> 10
TEPRENONE,> 10,> 30,> 10,> 30,> 10,> 10,> 10,> 10,> 30,17,–,> 30,> 10
CC(NC(C)(C)C)C(=O)c1cccc(Cl)c1 (stereo unspecified) [BUPROPION],> 10,–,> 10,> 30,> 10,> 10,> 10,> 10,> 30,–,> 30,> 30,> 10
CC1=C(CC(=O)O)c2cc(F)ccc2/C1=C\c1ccc([S+](C)[O-])cc1 (stereo unspecified),> 10,> 30,> 10,> 30,> 10,> 10,> 10,> 10,> 30,> 10,> 30,> 30,> 10
CC1Cc2ccccc2N1NC(=O)c1ccc(Cl)c(S(N)(=O)=O)c1 (stereo unspecified) [INDAPAMIDE],> 10,> 30,> 10,> 30,> 10,> 10,> 10,> 10,> 30,> 10,–,> 30,> 10
CCOC(=O)O[C@]1(C(=O)COC(=O)CC)CC[C@H]2[C@@H]3CCC4=CC(=O)C=C[C@]4(C)[C@H]3[C@@H](O)C[C@@]21C [PREDNICARBATE],> 10,> 10,–,–,> 10,> 10,> 10,> 10,> 10,> 10,–,> 10,> 10
O=C(O)CCCC[C@@H]1SC[C@@H]2NC(=O)N[C@@H]21 [BIOTIN],> 10,> 10,–,–,> 10,> 10,> 10,> 10,> 10,> 10,–,> 10,> 10
OCCN(CCO)c1nc(N2CCCCC2)c2nc(N(CCO)CCO)nc(N3CCCCC3)c2n1 [DIPYRIDAMOLE],> 30,> 30,–,–,> 30,15,> 30,–,> 30,> 30,–,> 30,> 30
Cc1cnc(Nc2ccc(OCCN3CCCC3)cc2)nc1Nc1cccc(S(=O)(=O)NC(C)(C)C)c1 [FEDRATINIB],> 10,0.24,3.9,–,> 10,> 10,7.4,14,9.16,15.4,–,3.75,> 10
CCC(=O)[C@@]1(C)[C@H](C)C[C@H]2[C@@H]3CCC4=CC(=O)C=C[C@]4(C)[C@H]3[C@@H](O)C[C@@]21C [RIMEXOLONE],> 10,> 10,–,–,> 10,> 10,> 10,> 10,> 10,> 10,–,> 10,> 10
CCN(CC)CC(=O)Nc1c(C)cccc1C [LIDOCAINE],–,–,–,–,–,–,–,> 10,> 30,–,> 30,> 30,–
CC(=O)Oc1cccc2c1C(=O)c1c(OC(C)=O)cc(C(=O)O)cc1C2=O [DIACEREIN],–,13,> 30,> 30,–,> 10,> 30,> 30,> 30,> 30,> 30,24,> 30
COc1ccc2c3c1O[C@H]1C(=O)CC[C@H]4[C@@H](C2)N(C)CC[C@]314 [HYDROCODONE],> 10,> 10,> 10,–,> 10,> 10,> 10,> 10,> 30,–,> 30,> 30,> 10
CC(=O)[C@@]1(O)CC[C@H]2[C@@H]3C[C@H](C)C4=CC(=O)C=C[C@]4(C)[C@@]3(F)[C@@H](O)C[C@@]21C [FLUOROMETHOLONE],> 10,> 10,> 10,> 30,> 10,> 10,> 10,> 10,> 10,> 10,–,> 10,> 10
